According to patent US11524968B2, “Heterocyclic compound as a protein kinase inhibitor” (HK inno.N Corporation, priority 2017, dated 2022):

Biological target: JAK1 (Homo sapiens (Human), UniProt P23458)
Assay: Analysis of JAK1 activity inhibition ability (ADP-Glo Kinase Assay)
Format: biochemical
Settings: JAK1 enzyme, ADP-Glo luminescence, ATP 250 uM, IRS-itide substrate, 30° C. 40 minutes; read-out: IC50
Procedure: Test Example 1: Analysis of JAK1 Activity Inhibition Ability of Compound of Formula 1 (ADP-Glo™ Kinase Assay)
A JAK inhibition ability of a compound according to the present invention was identified as follows.
A control material and a test material were prepared for each concentration, in such a way that they were diluted by means of DMSO. At the same time, ATP (250 uM) and JAK substrate (JAK1, IRS-itide 40 ng/mL) were prepared, in such a way that they were diluted by means of kinase buffer (40 mM Tris-HCl pH 7.5, 20 mM MgCl2, 0.5 mg/mL BSA, 50 uM DTT).
A test drug for each concentration, substrate, ATP and JAK enzyme were mixed in an eppendorf tube, and reacted in a 30° C. incubator for 40 minutes.
ADP-Glo™ reagent contained in ADP-Glo™ Kinase Enzyme System (Promega, USA, V9571) was added into each eppendorf tube, and reacted in a 30° C. incubator for 40 minutes. A kinase detection reagent contained in ADP-Go™ Kinase Enzyme System was inserted into the eppendorf tube, then an integration time was set to 1 second by using Wallac Victor 2™, then luminescence was measured, and then JAKs phosphorylation inhibition ability of the test material was analyzed. The concentration of the compound, which causes 50% of the JAK enzyme activity inhibition in comparison With the control group, was determined as IC50 (nM) of an inhibitor, wherein the results thereof are shown in a following table 1.

Chain of JAK1 (P23458 whole entry): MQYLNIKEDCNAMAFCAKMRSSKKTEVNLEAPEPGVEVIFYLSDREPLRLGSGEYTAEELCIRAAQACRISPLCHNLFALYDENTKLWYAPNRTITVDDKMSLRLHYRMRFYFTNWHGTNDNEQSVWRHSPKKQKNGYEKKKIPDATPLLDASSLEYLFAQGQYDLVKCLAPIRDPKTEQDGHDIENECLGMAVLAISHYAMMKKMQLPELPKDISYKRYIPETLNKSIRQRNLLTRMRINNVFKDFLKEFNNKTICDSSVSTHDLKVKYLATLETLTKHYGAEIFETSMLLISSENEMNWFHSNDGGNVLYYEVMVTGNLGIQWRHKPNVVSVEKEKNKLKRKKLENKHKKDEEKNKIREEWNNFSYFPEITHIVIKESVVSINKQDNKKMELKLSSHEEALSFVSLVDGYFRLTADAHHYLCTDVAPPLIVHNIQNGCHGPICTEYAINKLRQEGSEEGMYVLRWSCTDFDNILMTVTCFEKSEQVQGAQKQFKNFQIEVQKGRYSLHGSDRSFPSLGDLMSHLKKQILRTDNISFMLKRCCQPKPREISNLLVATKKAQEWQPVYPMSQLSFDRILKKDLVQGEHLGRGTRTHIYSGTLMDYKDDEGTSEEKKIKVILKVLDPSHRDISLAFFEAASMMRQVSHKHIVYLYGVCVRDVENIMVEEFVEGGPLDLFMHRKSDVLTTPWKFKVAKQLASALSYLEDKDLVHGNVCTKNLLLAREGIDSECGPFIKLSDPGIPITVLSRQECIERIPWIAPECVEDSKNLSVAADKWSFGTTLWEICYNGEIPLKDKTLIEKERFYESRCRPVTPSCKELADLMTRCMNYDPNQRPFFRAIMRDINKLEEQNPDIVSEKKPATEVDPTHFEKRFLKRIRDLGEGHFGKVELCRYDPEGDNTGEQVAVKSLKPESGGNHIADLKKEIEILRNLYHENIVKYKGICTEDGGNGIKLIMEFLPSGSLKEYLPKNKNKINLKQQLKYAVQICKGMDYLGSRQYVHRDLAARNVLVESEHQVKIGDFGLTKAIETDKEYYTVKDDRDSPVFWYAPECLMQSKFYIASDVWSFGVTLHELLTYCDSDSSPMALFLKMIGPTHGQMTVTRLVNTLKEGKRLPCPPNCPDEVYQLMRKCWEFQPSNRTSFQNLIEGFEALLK

| IC50 [nM] | SMILES |
| --- | --- |
| < 20 | CCCCS(=O)(=O)Nc1ccc(-c2cc(NC(=O)C3CC3)nc3[nH]ccc23)cc1F [Example 67, N-(4-(4-(butylsulfonamido)-3-fluorophenyl)-1H-pyrrolo[2,3-b]pyridin-6-yl)cyclopropanecarboxamide] |
| 20 to 200 | O=C(Nc1cc(C2=CCN(C(=O)CCC(F)(F)F)CC2)c2cc[nH]c2n1)C1CC1 [Example 254, N-(4-(1-(4,4,4-trifluorobutanoyl)-1,2,3,6-tetrahydropyridin-4-yl)-1H-pyrrolo[2,3-b]pyridin-6-yl)cyclopropanecarboxamide] |
| > 200 | Cc1cc(NC(=O)CC#N)ccc1-c1cc(NC(=O)C2CC2)nc2[nH]ccc12 [Example 240, N-(4-(4-(2-cyanoacetamido)-2-methylphenyl)-1H-pyrrolo[2,3-b]pyridin-6-yl)cyclopropanecarboxamide] |
| < 20 | CC1CN(C(=O)c2cccc(F)c2F)CC=C1c1cc(NC(=O)C2CC2)nc2[nH]ccc12 (stereo not drawn) [Example 378, N-(4-(1-(2,3-difluorobenzoyl)-3-methyl-1,2,3,6-tetrahydropyridin-4-yl)-1H-pyrrolo[2,3-b]pyridin-6-yl)cyclopropanecarboxamide] |
| > 200 | CCS(=O)(=O)Nc1ccc(-c2cc(NC(=O)C3CC3)nc3[nH]c(C)cc23)cc1 [Example 74, N-(4-(4-(ethylsulfonamido)phenyl)-2-methyl-1H-pyrrolo[2,3-b]pyridin-6-yl)cyclopropanecarboxamide] |
| 20 to 200 | N#CC1(CS(=O)(=O)N2CC=C(c3cc(NC(=O)C4CC4)nc4[nH]ccc34)CC2)CC1 [Example 172, N-(4-(1-(((1-cyanocyclopropyl)methyl)sulfonyl)-1,2,3,6-tetrahydropyridin-4-yl)-1H-pyrrolo[2,3-b]pyridin-6-yl)cyclopropanecarboxamide] |
| 20 to 200 | CC1CN(C(=O)c2cc3ccccc3o2)CC=C1c1cc(NC(=O)C2CC2)nc2[nH]ccc12 (stereo not drawn) [Example 352, N-(4-(1-(benzofuran-2-carbonyl)-3-methyl-1,2,3,6-tetrahydropyridin-4-yl)-1H-pyrrolo[2,3-b]pyridin-6-yl)cyclopropanecarboxamide] |
| < 20 | CCC1CN(C(=O)CC#N)CC=C1c1cc(NC(=O)C2CC2)nc2[nH]ccc12 (stereo not drawn) [Example 294, N-(4-(1-(2-cyanoacetyl)-3-ethyl-1,2,3,6-tetrahydropyridin-4-yl)-1H-pyrrolo[2,3-b]pyridin-6-yl)cyclopropanecarboxamide] |
| > 200 | N#CC1(C(=O)N2CC=C(c3cc(NC(=O)C4CC4)nc4[nH]ccc34)C2)CC1 [Example 430, N-(4-(1-(1-cyanocyclopropane-1-carbonyl)-2,5-dihydro-1H-pyrrol-3-yl)-1H-pyrrolo[2,3-b]pyridin-6-yl)cyclopropanecarboxamide] |
| 20 to 200 | N#CCNC(=O)N1CC=C(c2cc(NC(=O)C3CC3)nc3[nH]ccc23)CC1 [Example 447, N-(cyanomethyl)-4-(6-(cyclopropanecarboxamido)-1H-pyrrolo[2,3-b]pyridin-4-yl)-3,6-dihydropyridine-1 (2H)-carboxamide] |
| 20 to 200 | CCc1cc(-c2cc(NC(=O)C3CC3)[n+]([O-])c3[nH]ccc23)ccc1NS(=O)(=O)CC [Example 135, 6-(cyclopropanecarboxamido)-4-(3-ethyl-4-(ethylsulfonamido)phenyl)-1H-pyrrolo[2,3-b]pyridine 7-oxide] |
| 20 to 200 | O=C(Nc1cc(-c2ccc(CC(=O)N3CCC(C(F)(F)F)CC3)cc2)c2cc[nH]c2n1)C1CC1 [Example 570, N-(4-(4-(2-oxo-2-(4-(trifluoromethyl)piperidin-1-yl)ethyl)phenyl)-1H-pyrrolo[2,3-b]pyridin-6-yl)cyclopropanecarboxamide] |
| 20 to 200 | C[C@H]1CC(Nc2ccc(-c3cc(NC(=O)C4CC4)nc4[nH]ccc34)cc2)CCN1C(=O)Nc1ccc(F)cc1F (stereo partly drawn) [Example 506, (2S)-4-((4-(6-(cyclopropanecarboxamido)-1H-pyrrolo[2,3-b]pyridin-4-yl)phenyl)amino)-N-(2,4-difluorophenyl)-2-methylpiperidine-1-carboxamide] |
| < 20 | CC(C)Oc1ccc(S(=O)(=O)Nc2ccc(-c3cc(NC(=O)C4CC4)nc4[nH]ccc34)cc2)cc1 [Example 19, N-(4-(4-((4-isopropoxyphenyl)sulfonamido)phenyl)-1H-pyrrolo[2,3-b]pyridin-6-yl)cyclopropanecarboxamide] |
| 20 to 200 | O=C(Nc1cc(-c2ccc(CN3CCS(=O)(=O)CC3)cc2)c2cc[nH]c2n1)NC1CC1 [Example 717, 1-cyclopropyl-3-(4-(4-((1,1-dioxidothiomorpholino)methyl)phenyl)-1H-pyrrolo[2,3-b]pyridin-6-yl)urea] |
| < 20 | O=C(Nc1cc(-c2ccc(NS(=O)(=O)C3CCC3)cc2)c2cc[nH]c2n1)C1CC1 [Example 58, N-(4-(4-(cyclobutanesulfonamido)phenyl)-1H-pyrrolo[2,3-b]pyridin-6-yl)cyclopropanecarboxamide] |
| 20 to 200 | CC1CN(C(=O)CC#N)CC=C1c1cc(NC(=O)C2CC2)nc2[nH]ccc12 (stereo in doubt) [Example 305, (R)—N-(4-(1-(2-cyanoacetyl)-3-methyl-1,2,3,6-tetrahydropyridin-4-yl)-1H-pyrrolo[2,3-b]pyridin-6-yl)cyclopropanecarboxamide] |
| > 200 | O=C(Nc1cc(-c2cnn(C3CN(S(=O)(=O)C4CCCCC4)C3)c2)c2cc[nH]c2n1)C1CC1 [Example 606, N-(4-(1-(1-(cyclohexylsulfonyl)azetidin-3-yl)-1H-pyrazol-4-yl)-1H-pyrrolo[2,3-b]pyridin-6-yl)cyclopropanecarboxamide] |
| 20 to 200 | N#CCCCS(=O)(=O)Nc1ccc(-c2nc(NC(=O)C3CC3)nc3[nH]ccc23)cc1F [Example 204, N-(4-(4-((3-cyanopropyl)sulfonamido)-3-fluorophenyl)-7H-pyrrolo[2,3-d]pyrimidin-2-yl)cyclopropanecarboxamide] |
| 20 to 200 | CCNC(=O)Cc1ccc(-c2cc(NC(=O)C3CC3)nc3[nH]ccc23)cc1 [Example 541, N-(4-(4-(2-(ethylamino)-2-oxoethyl)phenyl)-1H-pyrrolo[2,3-b]pyridin-6-yl)cyclopropanecarboxamide] |
| > 200 | CC1CN(C(=O)OC(C)(C)C)CC=C1c1cc(NC(=O)C2CC2)nc2[nH]ccc12 (stereo not drawn) [Example 456, tert-butyl 4-(6-(cyclopropanecarboxamido)-1H-pyrrolo[2,3-b]pyridin-4-yl)-3-methyl-3,6-dihydropyridine-1 (2H)-carboxylate] |
| > 200 | N#CCCC(=O)N1C=C(c2cc(NC(=O)C3CC3)nc3[nH]ccc23)CCC1 [Example 418, N-(4-(1-(3-cyanopropanoyl)-1,4,5,6-tetrahydropyridin-3-yl)-1H-pyrrolo[2,3-b]pyridin-6-yl)cyclopropanecarboxamide] |
| 20 to 200 | CC1CN(C(=O)CCCC#N)CC=C1c1cc(NC(=O)C2CC2)nc2[nH]ccc12 (stereo not drawn) [Example 285, N-(4-(1-(4-cyanobutanoyl)-3-methyl-1,2,3,6-tetrahydropyridin-4-yl)-1H-pyrrolo[2,3-b]pyridin-6-yl)cyclopropanecarboxamide] |
| < 20 | CCS(=O)(=O)Nc1ccc(-c2cc(NC(=O)C3CC3)nc3[nH]ccc23)c(C)c1 [Example 29, N-(4-(4-(ethylsulfonamido)-2-methylphenyl)-1H-pyrrolo[2,3-b]pyridin-6-yl)cyclopropanecarboxamide] |
| < 20 | O=C(Nc1nc(-c2ccc(NS(=O)(=O)CCCF)c(F)c2)c2cc[nH]c2n1)C1CC1 [Example 203, N-(4-(3-fluoro-4-((3-fluoropropyl)sulfonamido)phenyl)-7H-pyrrolo[2,3-d]pyrimidin-2-yl)cyclopropanecarboxamide] |
| > 200 | CC(C)(C)OC(=O)N1CCCC(NC(=O)Cc2ccc(-c3cc(NC(=O)C4CC4)nc4[nH]ccc34)cc2)C1 (stereo not drawn) [Example 555, tert-butyl 3-(2-(4-(6-(cyclopropanecarboxamido)-1H-pyrrolo[2,3-b]pyridin-4-yl)phenyl)acetamido)piperidine-1-carboxylate] |
| 20 to 200 | N#CCNC(=O)c1ccc(-c2cc(NC(=O)C3CC3)nc3[nH]ccc23)cc1F [Example 528, N-(cyanomethyl)-4-(6-(cyclopropanecarboxamido)-1H-pyrrolo[2,3-b]pyridin-4-yl)-2-fluorobenzamide] |

| SMILES | IC50 [nM] |
| --- | --- |
| O=C(Nc1cc(C2=CC3CCCC(C2)N3C(=O)c2ccc(Cl)nc2)c2cc[nH]c2n1)C1CC1 (stereo not drawn) [Example 368, N-(4-(9-(6-chloronicotinoyl)-9-azabicyclo[3.3.1]non-2-en-3-yl)-1H-pyrrolo[2,3-b]pyridin-6-yl)cyclopropanecarboxamide] | < 20 |
| O=C(Nc1cc(C2CC3CCC(C2)N3C(=O)C2CC2)c2cc[nH]c2n1)C1CC1 (stereo not drawn) [Example 650, N-(4-(8-(cyclopropanecarbonyl)-8-azabicyclo[3.2.1]octan-3-yl)-1H-pyrrolo[2,3-b]pyridin-6-yl)cyclopropanecarboxamide] | > 200 |
| N#CC1CC(N2CC=C(c3cc(NC(=O)C4CC4)nc4[nH]ccc34)CC2)C1 (stereo not drawn) [Example 490, N-(4-(1-(3-cyanocyclobutyl)-1,2,3,6-tetrahydropyridin-4-yl)-1H-pyrrolo[2,3-b]pyridin-6-yl)cyclopropanecarboxamide] | 20 to 200 |
